Experimental data as given in PMC4380987 (Protein Science : A Publication of the Protein Society, 2014).

Target: Edmanase (engineered cruzain) (Trypanosoma cruzi, UniProt P25779, C147G/G187S/A260C/L282Y)
Format: biochemical

CC(=O)c1nc(Nc2ccccc2)sc1C [1-(2-anilino-5-methyl-1,3-thiazol-4-yl)-ethanone]
IC50: 1140 µM
